Reference: US8193225B2, “Isoxazole amides, derivatives and methods of chemical induction of neurogenesis” (priority 2006, dated 2012)
Entries after “also recorded” stand apart in the source; their conditions may differ.

Experiments:
neuroD-luciferase [1] = experiment: neuroD-luciferase reporter gene assay in HCN cells; format: cell-based, rat; conditions: HCN cells
gluR2-luc = experiment: gluR2-luciferase reporter gene assay in HCN cells; format: cell-based, rat
[2] = system: MEF2 reporter gene (3XMRE-luc); experiment: MEF2 reporter gene (3XMRE-luc) assay in HCN cells; format: cell-based, rat; conditions: HCN cells/NPCs, versus vehicle
HCN cells [3] = experiment: in vitro neuronal differentiation of HCN cells (morphology, Tuj1 staining); format: cell-based, rat
HCN cells [4] = experiment: glial (astrocyte, oligodendrocyte) differentiation of HCN cells/NPCs; format: cell-based, rat; conditions: 4 d cultures
HCN cells [5] = experiment: RT-PCR and protein blotting of gene expression in HCN cells; format: cell-based, rat
[6] = system: adult mouse whole brain (MWB) neural progenitor cells; experiment: neuronal differentiation of adult mouse whole brain (MWB) neural progenitor cells; format: cell-based; conditions: 4 d cultures
Description: (§1) Neural stem cell culture, in vitro differentiation, and CaMK inhibitor studies. The hippocampal neural stem/progenitor (NSC) line used in this study (HCN cells) were originally isolated from adult (8-10 wks old) female Fisher 344 rats and have been characterized previously (Gage et al., 1995; Palmer et al., 1997). HCN cells were cultured in DMEM:F12 (Omega Scientific) with N2 supplement (Invitrogen) and basic fibroblast growth factor (20 ng/ml FGF-2) (PeproTech). The mouse whole brain neural stem/progenitors (MWB) were derived from adult (8-10 wks old) C57BL/6 mice that have been characterized previously (Ray and Gage, 2006). The P19CL6 cells is a sub-line of P19EC cells, originally generated by the late Dr. Habara-Ohkubo (Habara-Ohkubo, 1996), were grown in MEM-α (Invitrogen) containing 10% fetal bovine serum (Omega). HCN cells or MWB neural progenitors were trypsinized and plated into N2 medium (Invitrogen) containing FGF-2 (HCN cells) or FGF-2/EGF/heparin (MWB) overnight, and switched to fresh N2 medium without FGF-2 and Isx-9 (20 μM for HCN cells and 5 μM for MWB) was added for 4 d. To test if Isx-9 could block competing astrocyte or oligodendrocyte differentiation, standard gliogenic conditions were used as described previously (Hsieh et al., 2004). […]

P19CL6 cells = experiment: neuronal differentiation of P19CL6 cells; format: cell-based, mouse; conditions: 4 d cultures
Description: as §1

[7] = system: human CD133(+) brain tumor stem cells (BTSCs); experiment: differentiation of CD133+ brain tumor stem cells (BTSCs); format: cell-based; conditions: 20 μM, within 4 days
Description: (§2) CD133+ glioblastoma brain tumor stem cells (BTSCs) from an explanted human tumor specimen were treated with 20 μM Isx-9 (FIG. 9C) or vol/vol DMSO (vehicle) control (FIG. 9B).

NeuroD-luciferase [8] = experiment: NeuroD-luciferase reporter in BTSCs; format: cell-based, human; conditions: after 24 hours, compared to vehicle
Description: as §2

[9] = system: NMDA receptor 1-(NR1) luciferase; experiment: NMDA receptor 1 (NR1)-luciferase reporter in BTSCs; format: cell-based, human; conditions: after 24 hours, compared to vehicle
Description: as §2

[10] = system: human CD133(+) brain tumor stem cells (BTSCs); experiment: RT-PCR and protein blotting of gene expression in BTSCs; format: cell-based
Description: FIGS. 9A-H—Isoxazoles specifically target the CD133(+) glioblastoma cancer stem cell to adopt a neuronal fate program. […] (FIG. 9B) BTSCs cultured with DMSO (vehicle) (1% vol./vol.). (FIG. 9D) Isx-9-treated BTSCs stained with neuronal markers Tuj1 (red) and Map2ab (green), Dapi-stained nuclei is blue. Scale bar=25 μm. […] (FIGS. 9G and 9H) RT-PCR and protein blotting analysis of gene expression in Isx-9-treated BTSCs. […] GAPDH is used as a normalization control.
This activity remained following addition of FGF/EGF without additional Isx-9 addition.

[11] = system: human CD133(+) brain tumor stem cells (BTSCs); experiment: growth, secondary neurospheres and BrdU uptake of BTSCs; format: cell-based
Description: CD133(+) brain tumor stem cells (BTSCs) from an explanted human tumor specimen were treated with EGF/FGF (FIG. 10A) or Isx-9 (20 μM) (FIG. 10B) for 7 days before returning to EGF/FGF (FIG. 10C) or EGF/FGF plus Isx-9 conditions (FIG. 10D) for an additional 2 days.
The number and size of neurospheres observed in 7-day pretreated BTSCs with DMSO (vehicle), EGF/FGF, or Isx-9 that were dissociated and re-plated to form secondary neurospheres (1000 cells/well) under various conditions is shown in FIG. 10F.

[12] = system: RFP-labeled human CD133(+) BTSCs; experiment: transplantation of pre-treated RFP-labeled BTSCs into striatum of NOD/scid mice; format: in vivo
Description: BTSC transplantation was performed by stereotactic surgery into the left striatum (coordinates from Bregma AP −0 mm, ML +2.5 mm, DV −3.5 mm) with a 33-gauge Hamilton syringe at a flow rate of 30,000 cells/10 minutes.

## O=C(NC1CC1)c1cc(-c2cccs2)on1 [Isx-9, N-cyclopropyl-5-(thiophen-2-yl)isoxazole-3-carboxamide]
neuroD-luciferase [1]
  increase in neuroD luciferase reporter: ≥ 8 fold
gluR2-luc
  increase in gluR2 luciferase reporter: ≥ 8 fold
[2]
  activation of MEF2 reporter gene (3XMRE-luc) / MEF2 promoter: Dose-dependent activation
HCN cells [3]; 20 μM, 4 d cultures
  neuronal differentiation of HCN cells/NPCs: promotes robust neuronal differentiation
HCN cells [3]; HCN cells, by 4 d
  Tuj1+ differentiation: > 50%
HCN cells [4]
  gliogenesis / glial differentiation: dominantly blocks gliogenesis
HCN cells [5]; 2- and 4-days, compared to vehicle
  MEF2 mRNA levels: up-regulated
HCN cells [5]; HCN cells
  expression of SOX2: decreased expression
HCN cells [5]; HCN cells/NPCs
  neuronal protein expression (protein blotting): increased Tuj1 protein
HCN cells [5]; protein blotting time-course, up to 64 hours
  MEF2A and MEF2C protein levels: unchanged
[6]
  neuronal differentiation of MWB neural progenitors: promotes neuronal differentiation
P19CL6 cells
  neuronal differentiation of P19CL6 / P19 embryonal carcinoma cells: promotes neuronal differentiation
[7]
  neuronal differentiation of BTSCs: triggers a pro neuronal-differentiation effect; also recorded: leads to more differentiated (adherent and phase-dark with neuronal-like processes) cells
NeuroD-luciferase [8]
  activation of NeuroD-luciferase in BTSCs: Dose-dependent activation
[9]
  activation of NR1-luciferase in BTSCs: Dose-dependent activation
[10]
  CD133 expression in BTSCs: downregulated
  HDAC-4 and -5 protein in BTSCs: remain relatively unchanged
  NRSF expression in BTSCs: downregulated
[10]; 2 days
  NeuroD expression in BTSCs: Up-regulation of NeuroD
[10]; versus control
  overall levels of neuronal proteins (βTujIII, GluR2) in BTSCs: do not significantly differ
[11]; 7-day exposure, 20 μM
  cell attachment and differentiation of BTSCs after growth factor challenge: promotes an irreversible state of cell attachment and differentiation
[11]; 7-day pre-treatment, compared to EGF/FGF pre-treatment
  number and size of secondary neurospheres: mediates a decrease in the average number and size of each secondary neurosphere
[11]; 7 days pre-treatment, EGF/FGF added back for 24 hours
  DNA synthesis/proliferation (BrdU uptake) of BTSCs: leads to decreased DNA synthesis/proliferation
[12]; 7-day exposure in vitro (20 μM) before transplantation
  tumor-initiating ability of BTSCs: dramatically reduces tumor-initiating ability
[12]; after 1 month
  number of RFP-labeled BTSCs in the striatum: significant reduced the number of RFP-labeled BTSCs in the striatum
